Data from ChEMBL document CHEMBL1201862, “PubChem BioAssay data set” (2004).
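Cells were grown in 96-well plates and exposed to each compound for 48 hours at five concentrations; endpoints were interpolated linearly between bracketing concentrations, or set to the highest concentration if not reached. GI50 marks 50% less growth.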 Activity calls are given as the source filed them. Cut-off read from the data, not from the text of the source: active = GI50 up to about 1.1 µM and inactive = higher.

Experiments:
Assay in all cases: NCI-60 cell line screen, 48 h
[1] = tested on: HOP-62
[2] = tested on: SK-OV-3
[3] = tested on: PC-3
[4] = tested on: OVCAR-4
[5] = tested on: NCI/ADR-RES
[6] = tested on: UACC-257
[7] = tested on: NCI-H522
[8] = tested on: A498
[9] = tested on: KM12
[10] = tested on: RXF 393
[11] = tested on: MDA-N
[12] = tested on: SW-620
[13] = tested on: SK-MEL-28
[14] = tested on: IGROV-1
[15] = tested on: NCI-H460
[16] = tested on: HCT-116
[17] = tested on: COLO 205
[18] = tested on: HCC 2998
[19] = tested on: A549
[20] = tested on: RPMI-8226

Measured: GI50

COC(=O)C1=C(C(=O)OC)SC2(S1)C1=C(CCC1)SC(C(=O)OC)=C2C(=O)OC
inactive: [1] 12.7 µM | [2] 16.9 µM | [3] 11.2 µM | [4] 15.1 µM | [5] 18.8 µM | [6] 15.7 µM | [7] 2.99 µM | [8] 9.12 µM | [9] 15.1 µM | [10] 4.62 µM | [11] 14.5 µM | [12] 2.43 µM | [13] 10.7 µM | [14] 12.9 µM | [15] 5.37 µM | [16] 1.77 µM | [17] 13.8 µM | [18] 16.3 µM | [19] 16.5 µM | [20] 1.86 µM

Cc1nc2cc(/N=N/c3c(C)noc3C)ccc2[nH]1
inactive: [1] 27.1 µM | [2] 18.9 µM | [3] 27.6 µM | [4] 64.7 µM | [5] 28.1 µM | [6] 44.1 µM | [7] 23.3 µM | [8] 11.1 µM | [9] 49.8 µM | [10] 16.3 µM | [11] 16.8 µM | [12] 24.8 µM | [13] 17.6 µM | [14] 12.6 µM | [15] 21.8 µM | [16] 18.3 µM | [17] 15.1 µM | [18] 54.3 µM | [19] 19.1 µM | [20] 17.9 µM
